Experimental data taken from US20070110758A1, “Method for inhibiting bacterial colonisation” (ADELAIDE RESERCH & INNOVATION PTY LTD, priority 2003, published 2007).

System: H. pylori
Assay: Level of H. pylori colonisation in gastric body, transitional zone and antrum of inoculated mice, counted on Giemsa stained sections
Type: in vivo, Helicobacter pylori
Conditions: Example 6; N-acetyl cysteine alone; FIGS. 3, 4
Description: Female C57BL/6 mice, approximately six week old, were orally inoculated with Sydney strain 1 (SS1) of H. pylori (1.0×10^8 bacteria delivered in 0.1 ml of 0.9% (w/v) sodium chloride) according to Lee et al., (1997) Gastroenterology 112:1386-1397 (the entire disclosure of which is incorporated herein by reference) and treated twice daily by oro-gastric gavage for 21 days, starting 4 weeks after inoculation (Scheme 1 below). Animals were housed in the Animal House at the Women's and Children's Hospital. All animals were fed mouse chow and water ad libitum. [drawing 1] […]
The level of colonisation in the gastric body, transitional zone and antrum of mice inoculated with H. pylori was counted in 9-12 consecutive fields on Giemsa stained sections.
To assess the effect of the mucolytic agent N-acetyl cysteine […] on colonisation, the level of colonisation in the gastric body, transitional zone and antrum in mice inoculated with H. pylori was counted in 9-12 consecutive fields on Giemsa stained sections.
The level of colonisation in the gastric body, transitional zone and antrum in mice inoculated with H. pylori was counted in 9-12 consecutive fields on Giemsa stained sections.
Colonisation (Giemsa staining): The level of colonisation in the gastric body, transitional zone and antrum was counted in 9-12 consecutive fields on stained sections. […]

For `CC(=O)N[C@@H](CS)C(=O)O` [NAC, N-acetyl cysteine], the level of colonisation was “no effect”.
